Results on two molecules are retold here after BindingDB's records for doi:10.1016/j.bmc.2020.115681 (Takeda Pharmaceuticals International, 2020).

Test [1] has as its target T1, Ubiquitin-like modifier-activating enzyme ATG7 (Homo sapiens, UniProt O95352).
T1 sequence (O95352 whole entry): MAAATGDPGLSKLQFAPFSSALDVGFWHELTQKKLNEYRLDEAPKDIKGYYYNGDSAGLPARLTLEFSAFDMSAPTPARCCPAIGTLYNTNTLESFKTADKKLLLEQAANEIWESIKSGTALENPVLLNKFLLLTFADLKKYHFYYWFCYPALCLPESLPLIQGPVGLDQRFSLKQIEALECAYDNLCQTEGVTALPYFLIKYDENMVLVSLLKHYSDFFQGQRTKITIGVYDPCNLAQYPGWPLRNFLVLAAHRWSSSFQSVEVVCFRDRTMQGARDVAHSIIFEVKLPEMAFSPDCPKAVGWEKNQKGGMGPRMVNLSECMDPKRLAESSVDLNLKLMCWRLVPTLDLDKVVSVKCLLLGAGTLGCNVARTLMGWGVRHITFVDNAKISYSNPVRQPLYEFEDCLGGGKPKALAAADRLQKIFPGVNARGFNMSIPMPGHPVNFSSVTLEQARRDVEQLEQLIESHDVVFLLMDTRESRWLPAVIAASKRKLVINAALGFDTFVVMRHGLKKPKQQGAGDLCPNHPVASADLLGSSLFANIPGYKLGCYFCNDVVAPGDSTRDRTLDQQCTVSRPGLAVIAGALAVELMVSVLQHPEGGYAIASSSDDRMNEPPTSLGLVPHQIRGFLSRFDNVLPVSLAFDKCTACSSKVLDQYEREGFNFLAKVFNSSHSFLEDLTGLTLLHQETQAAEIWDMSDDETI
In words: Inhibition of recombinant His-tagged human ATG7 incubated for 105 mins in presence of GST-tagged ATG3 and Flag-tagged Gabarap and measured after 2 hrs by FRET assay relative to control.

The target in test [2] is T1, Ubiquitin-like modifier-activating enzyme ATG7. The test can be described thus: Inhibition of ATG7 in human 293HEK cells assessed as inhibition of ATG7:ATG8 thioester formation after 4 hrs by Western blot analysis. Background: Immunoblotting shows a protein as a band on a membrane.

Usually IC50 stands for the concentration needed to halve the response being measured. As for `Cc1cccc(Sc2nn([C@@H]3O[C@H](COS(N)(=O)=O)[C@@H](O)[C@@H]3F)c3ncnc(N)c23)c1` [[(2R,3R,4S,5R)-5-{4-amino-3-[(3-methylphenyl)sulfanyl]-1H-pyrazolo[3,4-d]pyrimidin-1-yl}-4-fluoro-3-hydroxytetrahydrofuran-2-yl]methyl sulfamate], the IC50 in test [1] is 35 nM.

Regarding `CSc1nn([C@H]2C[C@H](O)[C@H](COS(N)(=O)=O)O2)c2ncnc(N)c12` [{(2S,3S,5R)-5-[4-amino-3-(methylsulfanyl)-1H-pyrazolo[3,4-d]pyrimidin-1-yl]-3-hydroxytetrahydrofuran-2-yl}methyl sulfamate], the IC50 in test [2] came out at 295 nM.
